Test results as given in article PMC6121034 (Frontiers in Cellular Neuroscience, 2018).

Tests used:
Format in all cases: cell-based
[1] = target: T1, α1β2γ2 GABAA receptor (α1 subunit), LEU mutant (Rattus norvegicus, UniProt P18508+P62813+P63138, P62813:F91L); assay: whole-cell patch clamp, currents evoked by […] GABA
T1 construct: gene Gabra1; rat α1/β2/γ2L subunits expressed in HEK-293 cells; with GABAA receptor β2 (Gabrb2) and γ2L (Gabrg2) subunits

[2] = target: T2, α1β2γ2 GABAA receptor (α1 subunit), ALA mutant (Rattus norvegicus, UniProt P18508+P62813+P63138, P62813:F91A); assay: whole-cell patch clamp, currents evoked by […] GABA; design: dose or concentration left out as unconfirmed
T2 construct: gene Gabra1; rat α1/β2/γ2L subunits expressed in HEK-293 cells; with GABAA receptor β2 (Gabrb2) and γ2L (Gabrg2) subunits

[3] = target: T3, α1β2γ2 GABAA receptor (α1 subunit) (Rattus norvegicus, UniProt P18508+P62813+P63138); assay: whole-cell patch clamp dose-response, partial agonist
T3 construct: gene Gabra1; rat α1/β2/γ2L subunits expressed in HEK-293 cells; with GABAA receptor β2 (Gabrb2) and γ2L (Gabrg2) subunits
T3 sequence (P62813 28-455): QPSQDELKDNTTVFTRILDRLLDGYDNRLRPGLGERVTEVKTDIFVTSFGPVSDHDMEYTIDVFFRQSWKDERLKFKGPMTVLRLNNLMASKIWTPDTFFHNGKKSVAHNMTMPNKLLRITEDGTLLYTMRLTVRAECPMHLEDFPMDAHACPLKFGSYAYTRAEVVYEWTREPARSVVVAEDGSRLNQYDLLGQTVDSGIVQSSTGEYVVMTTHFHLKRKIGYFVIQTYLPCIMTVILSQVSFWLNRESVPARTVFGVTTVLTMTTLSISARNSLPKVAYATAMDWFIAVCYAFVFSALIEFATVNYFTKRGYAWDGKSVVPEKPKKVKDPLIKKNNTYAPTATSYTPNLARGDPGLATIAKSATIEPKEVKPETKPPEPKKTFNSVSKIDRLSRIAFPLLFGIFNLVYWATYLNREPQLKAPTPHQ
T3 sequence (P63138 26-474): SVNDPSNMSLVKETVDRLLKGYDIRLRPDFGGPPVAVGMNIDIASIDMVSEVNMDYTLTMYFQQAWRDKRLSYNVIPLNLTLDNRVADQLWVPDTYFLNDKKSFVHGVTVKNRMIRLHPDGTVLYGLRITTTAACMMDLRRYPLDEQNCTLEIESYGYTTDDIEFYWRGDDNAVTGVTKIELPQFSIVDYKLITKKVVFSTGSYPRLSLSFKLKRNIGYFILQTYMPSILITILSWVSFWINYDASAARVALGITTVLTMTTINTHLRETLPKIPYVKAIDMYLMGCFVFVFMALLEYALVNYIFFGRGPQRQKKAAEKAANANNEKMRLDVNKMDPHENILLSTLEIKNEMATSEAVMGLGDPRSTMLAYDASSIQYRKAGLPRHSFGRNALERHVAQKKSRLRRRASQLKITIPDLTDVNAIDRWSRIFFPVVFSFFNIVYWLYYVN
T3 sequence (P18508 39-466): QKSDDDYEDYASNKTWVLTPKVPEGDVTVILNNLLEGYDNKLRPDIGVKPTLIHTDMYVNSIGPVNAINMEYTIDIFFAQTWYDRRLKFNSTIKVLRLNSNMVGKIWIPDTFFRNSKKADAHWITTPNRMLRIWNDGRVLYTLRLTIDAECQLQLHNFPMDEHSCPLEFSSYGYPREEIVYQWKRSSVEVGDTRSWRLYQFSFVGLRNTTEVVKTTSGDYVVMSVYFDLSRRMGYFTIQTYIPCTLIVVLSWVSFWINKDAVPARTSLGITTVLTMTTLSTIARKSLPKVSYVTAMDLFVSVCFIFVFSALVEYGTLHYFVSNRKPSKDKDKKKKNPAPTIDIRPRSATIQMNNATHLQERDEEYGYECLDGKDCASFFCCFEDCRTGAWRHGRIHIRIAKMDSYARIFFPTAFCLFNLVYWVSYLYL

T1 sequence (P62813 28-455 F91L): as the sequence (P62813 28-455) above, with F64L counted along it
T1 sequence (P63138 26-474): as the sequence (P63138 26-474) above
T1 sequence (P18508 39-466): as the sequence (P18508 39-466) above
T2 sequence (P62813 28-455 F91A): as the sequence (P62813 28-455) above, with F64A counted along it
T2 sequence (P63138 26-474): as the sequence (P63138 26-474) above
T2 sequence (P18508 39-466): as the sequence (P18508 39-466) above

Structure (SMILES) | whole-cell patch clamp, currents evoked by 100 mM GABA [1] | whole-cell patch clamp, currents evoked by GABA [2] | EC50 [3] [µM]
NCCCC(=O)O [GABA] | Typical traces of current responses to saturating [GABA] application (black traces) | Typical traces of current responses to saturating [GABA] application (black traces) | –
O=S(=O)(O)C1CCNCC1 [P4S, piperidine-4-sulfonic acid] | – | – | 46
